According to PMC10932284 (International Journal of Molecular Sciences, 2024):
Read-outs that look alike come from different tables or passages of the source.

Assays:
[1] = tested on: M. tuberculosis strain resistant to both rifampicin and isoniazid; assay type: cell-based, Mycobacterium tuberculosis; settings: for number of M. tuberculosis colonies/standard inoculum volume (0.2 mL): 28 days, 37 °C; for growth inhibition of mycobacteria (in words): both concentrations (1 and 2 µg/mL)
[2] = tested on: M. tuberculosis strain susceptible to rifampicin and resistant to isoniazid; assay type: cell-based, Mycobacterium tuberculosis; settings: 28 days, 37 °C
[3] = 1 µg/mL in Lowenstein Jensen medium
[4] = 2 µg/mL in Lowenstein Jensen medium

| Compound | number of M. tuberculosis colonies/standard inoculum volume (0.2 mL) [1, 3] [colonies] | number of M. tuberculosis colonies/standard inoculum volume (0.2 mL) [1, 4] [colonies] | growth inhibition of mycobacteria (in words) [1] | number of M. tuberculosis colonies/standard inoculum volume (0.2 mL) [2, 3] [colonies] | number of M. tuberculosis colonies/standard inoculum volume (0.2 mL) [2, 4] [colonies] |
| --- | --- | --- | --- | --- | --- |
| O=C1Nc2ccccc2S(=O)(=O)N1 [2a] | 0 | 0 | inhibited | 0 | 0 |
| Cc1ccc2c(c1)S(=O)(=O)NC(=O)N2 [2c] | 0 | 0 | inhibited | 0 | 0 |
| Cc1cc(C)c2c(c1)S(=O)(=O)NC(=O)N2 [2d] | 0 | 0 | inhibited | 0 | 0 |
| O=C1Nc2ccc(F)cc2S(=O)(=O)N1 [2h] | 0 | 0 | inhibited | 0 | 0 |
| O=C1Nc2ccc(O)cc2S(=O)(=O)N1 [2t] | 0 | 0 | inhibited |  | 0 |
| CC(=O)Nc1nnc(S(N)(=O)=O)s1 [AAZ, acetazolamide, reference compound] | 0 | 0 |  | 0 | 0 |
| CC(=O)/N=c1/sc(S(N)(=O)=O)nn1C [MTZ, reference compound] | 0 | 0 |  | 0 | 0 |
